pIC50: −log10 of the molar value. Where a name gives a salt, the structure may show the parent alone.
Key:
human TLR7 = biological target: T1, human TLR7 (Homo sapiens, UniProt Q9NYK1); assay: TLR7 inhibition reporter assay (HEK-Blue cells, SEAP reporter, gardiquimod stimulation); format: cell-based; conditions: HEK-Blue cells overexpressing human TLR7, gardiquimod 7.5 μM
T1 construct: host or cells: HEK-Blue cells
T1 sequence (Q9NYK1 27-1049): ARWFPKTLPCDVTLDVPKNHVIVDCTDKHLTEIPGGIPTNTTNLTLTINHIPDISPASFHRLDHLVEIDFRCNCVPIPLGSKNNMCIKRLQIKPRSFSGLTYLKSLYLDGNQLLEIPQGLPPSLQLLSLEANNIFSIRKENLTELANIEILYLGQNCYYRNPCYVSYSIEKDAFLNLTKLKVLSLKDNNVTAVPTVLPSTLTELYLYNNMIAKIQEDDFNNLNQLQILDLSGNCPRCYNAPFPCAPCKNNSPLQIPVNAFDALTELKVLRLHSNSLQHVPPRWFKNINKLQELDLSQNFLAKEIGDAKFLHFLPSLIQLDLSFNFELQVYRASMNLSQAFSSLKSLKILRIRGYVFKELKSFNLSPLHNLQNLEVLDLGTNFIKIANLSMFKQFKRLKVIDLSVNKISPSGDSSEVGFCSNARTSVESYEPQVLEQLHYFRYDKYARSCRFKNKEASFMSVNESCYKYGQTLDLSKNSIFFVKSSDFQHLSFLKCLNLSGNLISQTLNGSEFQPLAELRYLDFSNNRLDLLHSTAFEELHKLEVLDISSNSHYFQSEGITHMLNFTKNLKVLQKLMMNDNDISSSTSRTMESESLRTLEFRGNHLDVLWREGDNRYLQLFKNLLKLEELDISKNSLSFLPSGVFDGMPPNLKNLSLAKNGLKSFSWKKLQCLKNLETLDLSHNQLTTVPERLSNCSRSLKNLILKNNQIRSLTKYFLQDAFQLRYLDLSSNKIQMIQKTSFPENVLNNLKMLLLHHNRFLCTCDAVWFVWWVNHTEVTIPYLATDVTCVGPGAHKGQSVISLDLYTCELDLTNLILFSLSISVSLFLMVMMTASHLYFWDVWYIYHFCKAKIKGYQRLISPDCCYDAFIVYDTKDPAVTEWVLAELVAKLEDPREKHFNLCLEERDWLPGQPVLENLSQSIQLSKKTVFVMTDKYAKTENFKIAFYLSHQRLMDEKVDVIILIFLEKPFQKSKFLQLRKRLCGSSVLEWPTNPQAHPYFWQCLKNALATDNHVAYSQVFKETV
Procedure, shortened: (§1)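 22 h, 37° C, 5% CO2 incubation; compounds 0.05 nM-50 μM final; TLR7 cells 15000/well, TLR8 20,000/well. Readout: SEAP via HEK-Blue Detection medium. % inhibition = signal reduction versus agonist + DMSO wells, referenced to known inhibitor.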

human TLR8 = biological target: T2, human TLR8 (Homo sapiens, UniProt Q9NR97); assay: TLR8 inhibition reporter assay (HEK-Blue cells, SEAP reporter, R848 stimulation); format: cell-based; conditions: HEK-Blue cells overexpressing human TLR8, R848 15.9 μM
T2 construct: host or cells: HEK-Blue cells
T2 sequence (Q9NR97 27-1041): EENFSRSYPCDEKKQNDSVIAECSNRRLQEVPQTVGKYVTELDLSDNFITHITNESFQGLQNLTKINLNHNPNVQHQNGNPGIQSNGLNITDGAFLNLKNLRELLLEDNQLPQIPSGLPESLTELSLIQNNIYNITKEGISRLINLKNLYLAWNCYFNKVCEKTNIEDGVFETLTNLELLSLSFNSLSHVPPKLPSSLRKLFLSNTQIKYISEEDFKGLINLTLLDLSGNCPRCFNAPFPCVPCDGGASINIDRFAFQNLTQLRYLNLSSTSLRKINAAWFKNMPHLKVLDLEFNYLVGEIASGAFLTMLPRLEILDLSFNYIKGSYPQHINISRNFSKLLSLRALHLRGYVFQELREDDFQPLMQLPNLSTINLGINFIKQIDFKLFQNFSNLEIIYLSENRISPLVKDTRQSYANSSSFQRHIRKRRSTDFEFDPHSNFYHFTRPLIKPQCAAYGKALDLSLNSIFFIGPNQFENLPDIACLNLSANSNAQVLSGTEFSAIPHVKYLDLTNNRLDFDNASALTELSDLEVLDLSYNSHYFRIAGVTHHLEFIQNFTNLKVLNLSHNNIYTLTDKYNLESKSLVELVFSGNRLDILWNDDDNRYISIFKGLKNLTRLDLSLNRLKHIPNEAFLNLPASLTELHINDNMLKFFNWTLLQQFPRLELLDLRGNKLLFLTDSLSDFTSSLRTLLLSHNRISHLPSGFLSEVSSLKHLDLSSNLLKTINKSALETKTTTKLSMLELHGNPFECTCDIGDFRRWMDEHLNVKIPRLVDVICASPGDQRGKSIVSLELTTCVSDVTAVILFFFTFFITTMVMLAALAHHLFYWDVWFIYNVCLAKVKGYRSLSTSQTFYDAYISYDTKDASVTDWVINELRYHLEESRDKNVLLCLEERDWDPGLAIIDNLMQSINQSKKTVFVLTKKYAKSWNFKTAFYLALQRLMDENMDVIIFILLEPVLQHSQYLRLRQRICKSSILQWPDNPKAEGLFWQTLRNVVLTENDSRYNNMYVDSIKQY
Procedure, shortened: as §1

Row | Compound | pIC50 (human TLR7) | pIC50 (human TLR8)
1 | CNCCN1CCC(c2cc3c(C(C)C)c(-c4ccc(OC)c(OC)c4)[nH]c3cc2C)CC1 [Example 207, 2-(4-(2-(3,4-dimethoxyphenyl)-3-isopropyl-6-methyl-1H-indol-5-yl)piperidin-1-yl)-N-methylethan-1-amine] | 5.14 | 4.33
2 | CCc1c(-c2ccc(OC)c(OC)c2)[nH]c2ccc(C3CCN(C4CCN(Cc5c(C)noc5C)CC4)CC3)cc12 [Example 138, 4-((4-(2-(3,4-dimethoxyphenyl)-3-ethyl-1H-indol-5-yl)-[1,4′-bipiperidin]-1′-yl)methyl)-3,5-dimethylisoxazole] | 5.45 | 6.57
3 | CCc1c(-c2ccc(OC)c(OC)c2)[nH]c2ccc(C3CCN(C4CCN(Cc5csnn5)CC4)CC3)cc12 [Example 130, 4-((4-(2-(3,4-dimethoxyphenyl)-3-ethyl-1H-indol-5-yl)-[1,4′-bipiperidin]-1′-yl)methyl)-1,2,3-thiadiazole] | 5.38 | 6.10
4 | COc1ccc(-c2[nH]c3ccc(C4CCN(C(=O)CNC(CO)CO)CC4)cc3c2C(C)C)cc1OC [Example 220, 2-((1,3-dihydroxypropan-2-yl)amino)-1-(4-(2-(3,4-dimethoxyphenyl)-3-isopropyl-1H-indol-5-yl)piperidin-1-yl)ethan-1-one] | 7.60 | 7.68
5 | COc1ccc(-c2[nH]c3ccc(C4CCN(C(=O)CNC56CC7CC(CC(O)(C7)C5)C6)CC4)cc3c2C(C)C)cc1OC [Example 218, 1-(4-(2-(3,4-dimethoxyphenyl)-3-isopropyl-1H-indol-5-yl)piperidin-1-yl)-2-(((1r,3s,5R,7S)-3-hydroxyadamantan-1-yl)amino)ethan-1-one] | 7.36 | 7.27
6 | CCc1c(-c2ccc(OC)c(OC)c2)[nH]c2ccc(C3CCN(C4CCN(Cc5cc6ccccc6n5C)CC4)CC3)cc12 [Example 137, 2-(3,4-dimethoxyphenyl)-3-ethyl-5-(1′-((1-methyl-1H-indol-2-yl)methyl)-[1,4′-bipiperidin]-4-yl)-1H-indole] | 5.33 | 5.89
7 | COc1ccc(-c2[nH]c3ccc(C4CCN(C(=O)CN5CCC(N6CCCCC6)CC5)CC4)cc3c2C(C)C)cc1OC [Example 211, 2-([1,4′-bipiperidin]-1′-yl)-1-(4-(2-(3,4-dimethoxyphenyl)-3-isopropyl-1H-indol-5-yl)piperidin-1-yl)ethan-1-one] | 7.85 | 7.60
8 | CCc1c(-c2ccc(OC)c(OC)c2)[nH]c2ccc(C3CCN(C4CCN(Cc5ccn(C)n5)CC4)CC3)cc12 [Example 133, 2-(3,4-dimethoxyphenyl)-3-ethyl-5-(1′-((1-methyl-1H-pyrazol-3-yl)methyl)-[1,4′-bipiperidin]-4-yl)-1H-indole] | 6.68 | 6.80
9 | CCCc1c(-c2ccc(OC)c(OC)c2)[nH]c2ccc(C3CCN(C4CCN(CC(C)C)CC4)CC3)cc12 [Example 121, 2-(3,4-dimethoxyphenyl)-5-(1′-isobutyl-[1,4′-bipiperidin]-4-yl)-3-propyl-1H-indole-di-trifluoroacetic acid] | 6.18 | 7.19
10 | CCc1c(-c2ccc(OC)c(OC)c2)[nH]c2ccc(C3CCN(C4CCN(Cc5cc(C)n[nH]5)CC4)CC3)cc12 [Example 131, 2-(3,4-dimethoxyphenyl)-3-ethyl-5-(1′-((3-methyl-1H-pyrazol-5-yl)methyl)-[1,4′-bipiperidin]-4-yl)-1H-indole] | 6.43 | 7.25
11 | COc1ccc(-c2[nH]c3cc(C)c(C4CCNCC4)cc3c2C(C)C)cc1OC [Example 205, 2-(3,4-dimethoxyphenyl)-3-isopropyl-6-methyl-5-(piperidin-4-yl)-1H-indole] | 5.63 | 5.16
12 | COc1ccc(-c2[nH]c3ccc(C4CCNCC4)cc3c2C(C)C)cc1OC [Example 194, 2-(3,4-dimethoxyphenyl)-3-isopropyl-5-(piperidin-4-yl)-1H-indole hydrochloride] | 7.14 | 7.27
13 | COc1ccc(-c2[nH]c3ccc(C4CCN(C5CCN(C(C)C)CC5)CC4)cc3c2C)cc1OC [Example 10, 2-(3,4-dimethoxyphenyl)-5-(1′-isopropyl-[1,4′-bipiperidin]-4-yl)-3-methyl-1H-indole] | 6.22 | 6.70
14 | COc1ccc(-c2[nH]c3ccc(C4CCN(C5CCN(C6CCCC6)CC5)CC4)cc3c2C(C)C)cc1OC [Example 202, 5-(1′-cyclopentyl-[1,4′-bipiperidin]-4-yl)-2-(3,4-dimethoxyphenyl)-3-isopropyl-1H-indole] | 6.81 | 7.89
15 | CNCCN1CCC(c2ccc3[nH]c(-c4ccc(OC)c(OC)c4)c(CC(C)C)c3c2)CC1 [Example 116, trifluoroacetic acid] | 5.89 | 7.02
16 | COc1ccc(-c2[nH]c3ccc(C4CCN(C(=O)CNCC(C)(C)CO)CC4)cc3c2C(C)C)cc1OC [Example 219, 1-(4-(2-(3,4-dimethoxyphenyl)-3-isopropyl-1H-indol-5-yl)piperidin-1-yl)-2-((3-hydroxy-2,2-dimethylpropyl)amino)ethan-1-one] | 7.48 | 7.41
17 | CCc1c(-c2ccc(OC)c(OC)c2)[nH]c2ccc(C3CCN(C(=O)C4(C)CCNCC4)CC3)cc12 [Example 187, (4-(2-(3,4-dimethoxyphenyl)-3-ethyl-1H-indol-5-yl)piperidin-1-yl)(4-methylpiperidin-4-yl)methanone] | 6.78 | 6.79
18 | CCc1c(-c2ccc(OC)c(OC)c2)[nH]c2ccc(C3CCN(C(=O)CN4CCCC(C(=O)O)C4)CC3)cc12 (racemic) [Example 176, 1-(2-(4-(2-(3,4-dimethoxyphenyl)-3-ethyl-1H-indol-5-yl)piperidin-1-yl)-2-oxoethyl)piperidine-3-carboxylic acid] | 5.05 | 5.18
19 | CCc1c(-c2ccc(OC)c(OC)c2)[nH]c2ccc(C3CCN(C4CCN(Cc5ccc(-c6ccccc6)s5)CC4)CC3)cc12 [Example 141, 2-(3,4-dimethoxyphenyl)-3-ethyl-5-(1′-((5-phenylthiophen-2-yl)methyl)-[1,4′-bipiperidin]-4-yl)-1H-indole] | 5.43 | 5.01
20 | CCc1c(-c2ccc(OC)c(OC)c2)[nH]c2ccc(C3CCN(C(=O)CN4CCCC(C(=O)N(CC)CC)C4)CC3)cc12 (stereo not drawn) [Example 168, 1-(2-(4-(2-(3,4-dimethoxyphenyl)-3-ethyl-1H-indol-5-yl)piperidin-1-yl)-2-oxoethyl)-N,N-diethylpiperidine-3-carboxamide] | 6.85 | 7.39
21 | CCc1c(-c2ccc(OC)c(OC)c2)[nH]c2ccc(C3CCN(C4CCN(Cc5coc(C)n5)CC4)CC3)cc12 [Example 126, 4-((4-(2-(3,4-dimethoxyphenyl)-3-ethyl-1H-indol-5-yl)-[1,4′-bipiperidin]-1′-yl)methyl)-2-methyloxazole] | 6.04 | 6.94

Reference: US11180474B2 (BRISTOL-MYERS SQUIBB COMPANY, priority 2016, dated 2021)
